ChEMBL document CHEMBL1124516, “Synthesis of 2,3-diaziridinyl-1,4-naphthoquinone sulfonate derivatives as potential antineoplastic agents” (1989)

Experiments:
Mus musculus [1] = assay: The ratio of the survival time of treated to control animals x 100 in mice bearing L1210 Leukemia, when compound (10 mg/kg) was administered intraperitoneally; type: functional
Mus musculus [2] = assay: The ratio of the survival time of treated to control animals x 100 in mice bearing L1210 leukemia, when compound (5 mg/kg) was administered intraperitoneally; type: functional
Mus musculus [3] = assay: Number of mice survived for a period greater than 50 days when a dose of 20 mg/Kg is administered intraperitoneally; tested in 5 mice; type: functional
Mus musculus [4] = assay: Average change in weight in mice bearing the L1210 Leukemia, when compound (10 mg/kg) was administered beginning 24 hr after tumor implantation, daily once for 6 consecutive days.; type: functional
Mus musculus [5] = assay: Average change in weight in mice bearing the L1210 Leukemia, when compound (5 mg/kg) was administered beginning 24 hr after tumor implantation, daily once for 6 consecutive days.; type: functional
Mus musculus [6] = assay: Average change in weight in mice bearing the B16 Melanoma, when compound(10 mg/kg) was administered intraperitoneally beginning 24 hr after tumor implantation, daily once for 6 consecutive days.; type: functional
Mus musculus [7] = assay: Average change in weight in mice bearing the B16 Melanoma, when compound (20 mg/kg) was administered beginning 24 hr after tumor implantation, daily once for 6 consecutive days.; type: functional
Mus musculus [8] = assay: The ratio of the survival time of treated to control animals x 100 in mice bearing L1210 Leukemia, when compound (15 mg/kg) was administered intraperitoneally; type: functional
Mus musculus [9] = assay: Average change in weight in mice bearing the B16 Melanoma, when compound (15 mg/kg) was administered beginning 24 h after tumor implantation, daily once for 6 consecutive days.; type: functional
L1210 [10] = assay: Number L1210 (murine leukemia) inoculated mice surviving for >50 days following 25 mg/kg i.p.; type: functional, Mus musculus; conditions: route intraperitoneal
Mus musculus [11] = assay: The ratio of the survival time of treated to control animals x 100 in mice bearing B16 Melanoma, when compound (15 mg/kg) was administered intraperitoneally; type: functional
Mus musculus [12] = assay: The ratio of the survival time of treated to control animals x 100 in mice bearing B16 Melanoma, when compound (20 mg/kg) was administered intraperitoneally; type: functional
Mus musculus [13] = assay: Average change in weight in mice bearing the L1210 Leukemia, when compound(15 mg/kg) was administered beginning 24 h after tumor implantation, daily once for 6 consecutive days.; type: functional
Mus musculus [14] = assay: Number of mice surviving for a period greater than 50 days when a dose of 30 mg/Kg is administered intraperitoneally; tested in 5 mice; type: functional
Mus musculus [15] = assay: The ratio of the survival time of treated to control animals x 100 in mice bearing B16 Melanoma, when compound (5 mg/kg) was administered intraperitoneally; type: functional
Mus musculus [16] = assay: The ratio of the survival time of treated to control animals x 100 in mice bearing B16 Melanoma, when compound (150 mg/kg) was administered intraperitoneally; type: functional
L1210 [17] = assay: Percentage survival time of L1210 (murine leukemia) inoculated mice following 30 mg/kg i.p.; type: functional, Mus musculus; conditions: route intraperitoneal
Mus musculus [18] = assay: Survival of mice bearing B16 melanoma cells greater than 50 days when treated with a dose of 100 mg/Kg administered intraperitoneally; tested in 5 mice; type: functional
Mus musculus [19] = assay: The ratio of the survival time of treated to control animals x 100 in mice bearing B16 Melanoma, when compound (50 mg/kg) was administered intraperitoneally; type: functional
Mus musculus [20] = assay: Number of mice survived for a period of greater than 50 days when a dose of 30 mg/Kg is administered intraperitoneally; tested in 10 mice; type: functional
Mus musculus [21] = assay: Number of mice survived for a period of greater than 50 days when a dose of 20 mg/Kg is administered intraperitoneally; tested in 10 mice; type: functional
Mus musculus [22] = assay: The ratio of the survival time of treated to control animals x 100 in mice bearing B16 Melanoma, when compound (100 mg/kg) was administered intraperitoneally; type: functional
Mus musculus [23] = assay: Average change in weight in mice bearing the L1210 Leukemia, when compound (25 mg/kg) was administered once daily beginning 24 hr after tumor implantation, for 6 consecutive days.; type: functional
Mus musculus [24] = assay: Number of mice survived for a period of greater than 50 days when a dose of 25 mg/Kg is administered intraperitoneally; tested in 10 mice; type: functional
Mus musculus [25] = assay: Average change in weight in mice bearing the B16 Melanoma, when compound(100 mg/kg) was administered beginning 24 hr after tumor implantation, daily once for 6 consecutive days.; type: functional
Mus musculus [26] = assay: Average change in weight in mice bearing the B16 Melanoma, when compound(150 mg/kg) was administered beginning 24 hr after tumor implantation, daily once for 6 consecutive days.; type: functional
Mus musculus [27] = assay: Survival of mice bearing B16 melanoma cells greater than 50 days when treated with a dose of 50 mg/Kg administered intraperitoneally; tested in 5 mice; type: functional
Mus musculus [28] = assay: Average change in weight in mice bearing the L1210 Leukemia, when compound (20 mg/kg) was administered once daily beginning 24 hr after tumor implantation, for 6 consecutive days.; type: functional
Mus musculus [29] = assay: Survival of mice bearing B16 melanoma cells greater than 50 days when treated with a dose of 150 mg/Kg administered intraperitoneally; tested in 5 mice; type: functional
L1210 [30] = assay: Percentage survival time of L1210 (murine leukemia) inoculated mice following 20 mg/kg i.p.; type: functional, Mus musculus; conditions: route intraperitoneal
L1210 [31] = assay: Percentage survival time of L1210 (murine leukemia) inoculated mice following 25 mg/kg i.p.; type: functional, Mus musculus; conditions: route intraperitoneal
Mus musculus [32] = assay: Average change in weight in mice bearing the L1210 Leukemia, when compound(30 mg/kg) was administered once daily beginning 24 hr after tumor implantation, for 6 consecutive days.; type: functional
Mus musculus [33] = assay: Average change in weight in mice bearing the B16 Melanoma, when compound(50 mg/kg) was administered intraperitoneally beginning 24 hr after tumor implantation, daily once for 6 consecutive days.; type: functional
Mus musculus [34] = assay: Average change in weight in mice bearing the L1210 Leukemia, when compound (15 mg/kg) was administered beginning 24 hr after tumor implantation, daily once for 6 consecutive days.; type: functional
Mus musculus [35] = assay: Number of mice survived for a period of greater than 50 days when a dose of 10 mg/Kg is administered intraperitoneally; tested in 5 mice; type: functional
Mus musculus [36] = assay: Number of mice survived for a period of greater than 50 days when a dose of 15 mg/Kg is administered intraperitoneally; tested in 5 mice; type: functional
Mus musculus [37] = assay: Number of mice survived for a period of greater than 50 days when a dose of 5 mg/Kg is administered intraperitoneally; tested in 5 mice; type: functional
Mus musculus [38] = assay: Number of mice survived for a period of greater than 50 days when a dose of 25 mg/Kg is administered intraperitoneally; tested in 4 mice; type: functional
Mus musculus [39] = assay: Number of mice survived for a period of greater than 50 days when a dose of 15 mg/kg is administered intraperitoneally; tested in 5 mice; type: functional; conditions: route intraperitoneal
Mus musculus [40] = assay: Number of mice survived for a period of greater than 50 days when a dose of 10 mg/kg is administered intraperitoneally; tested in 5 mice; type: functional; conditions: route intraperitoneal
Mus musculus [41] = assay: Number of mice survived for a period of greater than 50 days when a dose of 3 mg/Kg is administered intraperitoneally; tested in 5 mice; type: functional
Mus musculus [42] = assay: Survival of mice bearing B16 melanoma cells greater than 50 days when treated with a dose of 3 mg/Kg administered intraperitoneally; tested in 5 mice; type: functional
Mus musculus [43] = assay: The ratio of the survival time of treated to control animals x 100 in mice bearing B16 Melanoma, when compound (3 mg/kg) was administered intraperitoneally; type: functional
Mus musculus [44] = assay: The ratio of the survival time of treated to control animals x 100 in mice bearing L1210 leukemia, when compound (3 mg/kg) was administered intraperitoneally; type: functional
Mus musculus [45] = assay: Average change in weight in mice bearing the B16 Melanoma, when compound(3 mg/kg) was administered beginning 24 hr after tumor implantation, daily once for 6 consecutive days.; type: functional
Mus musculus [46] = assay: Average change in weight in mice bearing the L1210 Leukemia, when compound (3 mg/kg) was administered beginning 24 hr after tumor implantation, daily once for 6 consecutive days.; type: functional

SMILES	Activity (Mus musculus [1])	Activity (Mus musculus [2])	Survivals (Mus musculus [3])	Survivals (L1210 [10])	Survivals (Mus musculus [14])	Activity (Mus musculus [16])	Activity (L1210 [17])	Survivals (Mus musculus [18])	Activity (Mus musculus [19])	Activity (Mus musculus [22])	Average body weight change (Mus musculus [23]) [%]	Average change in body weight (Mus musculus [25]) [%]	Average change in body weight (Mus musculus [26]) [%]	Survivals (Mus musculus [27])	Average change in body weight (Mus musculus [28]) [%]	Survivals (Mus musculus [29])	Activity (L1210 [30])	Activity (L1210 [31])	Average change in body weight (Mus musculus [32]) [%]	Average body weight change (Mus musculus [33]) [%]	further results
CS(=O)(=O)Oc1cccc2c1C(=O)C(N1CC1)=C(N1CC1)C2=O	185	130	0	4	2																Average weight (Mus musculus [4]): -7.1%; Average weight (Mus musculus [5]): 3.3%; Average weight (Mus musculus [6]): -3.8%; Average weight (Mus musculus [7]): -8.1%; Activity (Mus musculus [8]): 295; Average weight (Mus musculus [9]): -6.4%; Activity (Mus musculus [11]): 137; Activity (Mus musculus [12]): 153; Average weight (Mus musculus [13]): -10%; Activity (Mus musculus [15]): 125
Cc1ccc(S(=O)(=O)Oc2cccc3c2C(=O)C(N2CC2)=C(N2CC2)C3=O)cc1						141	248	0	144	153	-3.5	-1.9	-9.8	0	-2.2	0	155	490	-7.4	4.5	Survivals (Mus musculus [20]): 7; Survivals (Mus musculus [21]): 7; Survivals (Mus musculus [24]): 9
O=C1C(N2CC2)=C(N2CC2)C(=O)c2c(OS(=O)(=O)c3ccc(F)cc3)cccc21			5	4	5	177		0	159	182	-5.7	-14.3	-20.3	0	0.3	0		200	-3.4	-5.2	
O=C1C(N2CC2)=C(N2CC2)C(=O)c2c(O)cccc21	96	114																			Average weight (Mus musculus [34]): -0.8%; Survivals (Mus musculus [35]): 0; Average weight (Mus musculus [4]): -3.2%; Average weight (Mus musculus [5]): 6.3%; Activity (Mus musculus [8]): 104; Survivals (Mus musculus [36]): 0; Survivals (Mus musculus [37]): 0
COc1ccc(S(=O)(=O)Oc2cccc3c2C(=O)C(N2CC2)=C(N2CC2)C3=O)cc1			0		3	165	193	0	132	154	-2.4	-12.4	-15.2	0	-0.1	0	175	222	-1.3	-4.7	Survivals (Mus musculus [38]): 1
O=C1C(N2CC2)=C(N2CC2)C(=O)c2c(OS(=O)(=O)c3ccc(Br)cc3)cccc21			0	0	0	151	179		143	153	11.2	2.5	0.7		12.2		214	165	8.3	1.1	
O=C1C(N2CC2)=CC(=O)c2c(O)cccc21	94	231																			Survival (Mus musculus [39]): 0; Survival (Mus musculus [40]): 0; Average weight (Mus musculus [34]): 2.1%; Average weight (Mus musculus [4]): 5.1%; Average weight (Mus musculus [5]): 12.7%; Activity (Mus musculus [8]): 90; Survival (Mus musculus [37]): 0
O=C1C(N2CC2)=C(N2CC2)C(=O)c2c(OS(=O)(=O)c3ccccc3)cccc21			5	5	4	148	359	0	156	180	-8.3	-12.3	-13.5	0	-6.2	0			-7	-1.3	
O=C1C(N2CC2)=C(N2CC2)C(=O)c2c(OS(=O)(=O)c3ccc(Cl)cc3)cccc21			0	0	3	178	167	0	143	153	1.7	-2.5	-3.2	0	4.2	0	161	200	-2.7	1.1	
CCOC(=O)NC1=C(N2CC2)C(=O)C(NC(=O)OCC)=C(N2CC2)C1=O [DIAZIQUONE]																					Survivals (Mus musculus [41]): 0; Survivals (Mus musculus [42]): 0; Activity (Mus musculus [43]): 147; Activity (Mus musculus [44]): 231; Average weight (Mus musculus [45]): -13.8%; Average weight (Mus musculus [46]): -11.7%
